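96-well plates; 48 h exposure; 5 concentrations. Endpoints by linear interpolation between flanking doses. Not reached: highest tested concentration assigned. Abbreviation: GI50, concentration required for 50% inhibition of growth.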 The source made the active and inactive calls. Rule as the data show it: active = GI50 up to about 1.1 µM and inactive = higher.
Experiments:
Test in all cases: growth of human tumour cells (NCI), 48 h
MOLT-4 = system: MOLT-4
NCI-H226 = system: NCI-H226
SK-OV-3 = system: SK-OV-3
NCI-H460 = system: NCI-H460
SK-MEL-28 = system: SK-MEL-28
SNB-19 = system: SNB-19
SNB-75 = system: SNB-75
T47D = system: T47D
HOP-92 = system: HOP-92
HCC 2998 = system: HCC 2998
SR = system: SR
BT-549 = system: BT-549
LOX IMVI = system: LOX IMVI
Hs-578T = system: Hs-578T
A498 = system: A498
HCT-15 = system: HCT-15
NCI-H522 = system: NCI-H522
HL-60 = system: HL-60
M14 = system: M14
NCI/ADR-RES = system: NCI/ADR-RES

Row | Compound | GI50 (MOLT-4) | GI50 (NCI-H226) | GI50 (SK-OV-3) | GI50 (NCI-H460) | GI50 (SK-MEL-28) | GI50 (SNB-19) | GI50 (SNB-75) | GI50 (T47D) | GI50 (HOP-92) | GI50 (HCC 2998) | GI50 (SR) | GI50 (BT-549) | GI50 (LOX IMVI) | GI50 (Hs-578T) | GI50 (A498) | GI50 (HCT-15) | GI50 (NCI-H522) | GI50 (HL-60) | GI50 (M14) | GI50 (NCI/ADR-RES)
1 | c1nnc(NCNc2nncs2)s1 | 29.6 µM (inactive) | > 100 µM (inactive) | 23.7 µM (inactive) | 6.18 µM (inactive) | 64.4 µM (inactive) | > 100 µM (inactive) | 30 µM (inactive) | 90.4 µM (inactive) | > 100 µM (inactive) | 19.2 µM (inactive) | 36.8 µM (inactive) | > 100 µM (inactive) | 32.7 µM (inactive) | > 100 µM (inactive) | 4.16 µM (inactive) | 40.2 µM | 48.1 µM (inactive) | 46.3 µM (inactive) | 43.1 µM (inactive) | > 100 µM (inactive)
2 | CC(=O)O[C@H]1C(=O)[C@@]2(C)[C@H]([C@H](OC(=O)c3ccccc3)[C@]3(O)C[C@H](OC(=O)[C@H](O)[C@@H](NC(=O)c4ccc(N)cc4)c4ccccc4)C(C)=C1C3(C)C)[C@]1(OC(C)=O)CO[C@@H]1C[C@@H]2O | 0.0129 µM (active) | < 0.005 µM (active) | 0.0134 µM (active) | < 0.005 µM (active) | > 50 µM (inactive) | 0.00675 µM (active) | < 0.005 µM (active) | < 0.005 µM (active) | 35.1 µM (inactive) | < 0.005 µM (active) | < 0.005 µM (active) | 0.0384 µM (active) | < 0.005 µM (active) | < 0.005 µM (active) | 0.0902 µM (active) | 2.68 µM | < 0.005 µM (active) | < 0.005 µM (active) | 0.0188 µM (active) | 15.3 µM (inactive)
3 | Cc1cc(NS(=O)(=O)c2ccc(NC(=O)c3ccc4nc5ccccc5c(Nc5ccc(S(=O)(=O)N=C(N)N)cc5)c4c3)cc2)no1 | 17.1 µM (inactive) | 14.2 µM (inactive) | 23.3 µM (inactive) | 17.4 µM (inactive) | 18.2 µM (inactive) | 29 µM (inactive) | 18.6 µM (inactive) | 14.6 µM (inactive) | 14.7 µM (inactive) | 16 µM (inactive) | 18.3 µM (inactive) | 20.6 µM (inactive) | 9.46 µM (inactive) | 20 µM (inactive) | 19.5 µM (inactive) | 15.4 µM | 17.1 µM (inactive) | 17.5 µM (inactive) | 15.1 µM (inactive) | 25.2 µM (inactive)
4 | CCNc1ncnc2sc(SCc3ccccc3)nc12 | 25.9 µM (inactive) | > 100 µM (inactive) | > 100 µM (inactive) | 46.2 µM (inactive) | > 100 µM (inactive) | > 100 µM (inactive) | > 100 µM (inactive) | 75.5 µM (inactive) | 19.6 µM (inactive) | 81.1 µM (inactive) | 33.8 µM (inactive) | > 100 µM (inactive) | 95.9 µM (inactive) | > 100 µM (inactive) | 61.9 µM (inactive) | > 100 µM | 62.2 µM (inactive) | 16.6 µM (inactive) | > 100 µM (inactive) | 34.8 µM (inactive)
5 | CCCCCCCCCCCCP(=O)(O)OCC(N)C(=O)O (stereo not given) | 16.9 µM (inactive) | 40.7 µM (inactive) | 21.6 µM (inactive) | 23.7 µM (inactive) | 43.3 µM (inactive) | 16.6 µM (inactive) | 11.4 µM (inactive) | > 100 µM (inactive) | 25.4 µM (inactive) | 30.5 µM (inactive) | 24.2 µM (inactive) | 29.6 µM (inactive) | 24.9 µM (inactive) | 20.2 µM (inactive) | 23.5 µM (inactive) | 17.5 µM | 5.22 µM (inactive) | 15.8 µM (inactive) | 48.8 µM (inactive) | 31.4 µM (inactive)
6 | Cc1cc(N(CCC#N)CCC#N)ccc1/C=N/NC(=O)c1ccccc1 | 24.3 µM (inactive) | 20.2 µM (inactive) | 18.5 µM (inactive) | 9.1 µM (inactive) | 31.5 µM (inactive) | > 59.2 µM (inactive) | 28.9 µM (inactive) | 24.8 µM (inactive) | 76.4 µM (inactive) | 9.2 µM (inactive) | 1.34 µM (inactive) | 42.7 µM (inactive) | 8.02 µM (inactive) | 15.4 µM (inactive) | 10.1 µM (inactive) | 5.28 µM | 8.34 µM (inactive) | 4.17 µM (inactive) | 40.6 µM (inactive) | 8.63 µM (inactive)
